The nature of this data set: HILIC, Waters ACQUITY UPLC BEH Amide, 100 × 2.1 mm, 1.7 µm; A: water + 0.125% formic acid + 10 mM ammonium formate; B: 5% water + 95% acetonitrile + 0.125% formic acid + 10 mM ammonium formate; gradient (min/%B) 0/100 2/100 7.7/70 9.5/40 10.25/30 12.75/100 17/100. The settings on record: stereoisomer not certain.
Turning to `Nc1ccccc1C(=O)CC(N)C(=O)O` (configuration not stated) [Kynurenine], the LC retention time is 6.98 min.
Consider `CS(=O)(=O)Nc1ccc(Cc2noc(-c3ccc4[nH]cc(CCN)c4c3)n2)cc1` [L-694,247], for which the LC retention time is 5.25 min.
The same measure for `NC(CCC(=O)NC(CSSCC(N)C(=O)O)C(=O)NCC(=O)O)C(=O)O` [L-Cysteine-glutathione disulfide]: 10.2 min.
On to `NC(=O)NCCCC[C@H](N)C(=O)O` [L-Homocitrulline], for which the LC retention time is 8.73 min.
The same measure for `CCOC(=O)C1=C(C)NC(C)=C(C(=O)OCC)C1c1ccccc1C=CC(=O)OC(C)(C)C` [Lacidipine]: 0.94 min; for `CC(O)C(N)=O` (configuration not stated) [Lactamide]: 1.74 min; for `OCC(O)C(O)C(OC1OC(CO)C(O)C(O)C1O)C(O)CO` (configuration not stated) [Lactitol]: 8.99 min.
The same measure for `Nc1ccn(C2CSC(CO)O2)c(=O)n1` (configuration not stated) [Lamivudine]: 3.4 min; for `Nc1nnc(-c2cccc(Cl)c2Cl)c(N)n1` [Lamotrigine]: 1.98 min; for `CC(C)OC(=O)CCCC=CCC1C(O)CC(O)C1CCC(O)CCc1ccccc1` (configuration not stated) [Latanoprost]: 1.06 min.
As for `CCCCCCCCCCCC(=O)OC(CC(=O)[O-])C[N+](C)(C)C` [Lauroyl-L-carnitine], the LC retention time was found to be 3.63 min.
The same measure for `N#Cc1ccc(C(c2ccc(C#N)cc2)n2cncn2)cc1` [Letrozol]: 0.98 min.
The same measure for `CC(C)CC(N)C(=O)NC(C)C(=O)O` (configuration not stated) [Leu-Ala]: 5 min; for `CC(C)CC(N)C(=O)NC(CCCN=C(N)N)C(=O)O` (configuration not stated) [Leu-Arg]: 8.86 min; for `CC(C)CC(N)C(=O)N1CCCC1C(=O)O` (configuration not stated) [Leu-Pro]: 7.32 min.
The same measure for `CC(C)CC(N)C(=O)O` (configuration not stated) [Leucine]: 7.08 min; for `c1ccc(C2CN3CCSC3=N2)cc1` (configuration not stated) [Levamisole]: 2.95 min; for `CCC(C(N)=O)N1CCCC1=O` (configuration not stated) [Levetiracetam]: 1.45 min.
In the case of `O=C(O)COCCN1CCN(C(c2ccccc2)c2ccc(Cl)cc2)CC1` (configuration not stated) [Levocetirizine], the LC retention time stood at 2.9 min.
The same measure for `C#CC1(O)CCC2C3CCC4=CC(=O)CCC4C3CCC21CC` (configuration not stated) [Levonorgestrel]: 0.99 min.
Regarding `CCN1CCCC1CNC(=O)c1cc(S(N)(=O)=O)ccc1OC` (configuration not stated) [Levosulpiride], the LC retention time came to 4.37 min.
The same measure for `CCN(CC)CC(=O)Nc1c(C)cccc1C` [Lidocaine]: 1.97 min; for `C=C(C)C1CC=C(C)CC1` (configuration not stated) [Limonene]: 0.92 min.
The same measure for `C=CC(C)(O)CCC=C(C)C` (configuration not stated) [Linalool]: 0.97 min; for `CC(=O)NCC1CN(c2ccc(N3CCOCC3)c(F)c2)C(=O)O1` (configuration not stated) [Linezolide]: 1.15 min; for `CCCCCC=CCC=CCCCCCCCC(=O)OC(CC(=O)[O-])C[N+](C)(C)C` (configuration not stated) [Linoleoylcarnitine]: 3.1 min.
Take `O=C1N(c2ccccc2)c2ccccc2C1(Cc1ccncc1)Cc1ccncc1` [Linopirdine]: the LC retention time is 1.17 min.
`NC(=O)CCCCC1CCSS1` (configuration not stated) [Lipoamide]: the LC retention time worked out at 1.25 min.
With `O=C1CC(c2ccc(O)cc2)Oc2cc(O)ccc21` (configuration not stated) [Liquiritigenin] the figure was 1.3 min; with `CN1C(CC(=O)c2ccccc2)CCCC1CC(O)c1ccccc1` (configuration not stated) [Lobeline A], 2.02 min; with `CN(CCCN1c2ccccc2CCc2ccccc21)CC(=O)c1ccc(Cl)cc1` [Lofepramine], 1.91 min.
With `CC(Oc1c(Cl)cccc1Cl)C1=NCCN1` (configuration not stated) [Lofexidine] the figure was 2.65 min; with `COc1ccc(CN2CCN(C(c3ccc(F)cc3)c3ccc(F)cc3)CC2)c(OC)c1OC` [Lomerizine], 1.7 min.
With `CC(=O)CCCCn1cnc2c1c(=O)n(C)c(=O)n2C` [Lomifylline] the figure was 1.09 min; with `CCOC(=O)N1CCC(=C2c3ccc(Cl)cc3CCc3cccnc32)CC1` [Loratadine], 1.11 min.
On to `O=C1Nc2ccc(Cl)cc2C(c2ccccc2Cl)=NC1O` (configuration not stated) [Lorazepam], for which the LC retention time was found to be 1.33 min.
Take `CCCCc1nc(Cl)c(CO)n1Cc1ccc(-c2ccccc2-c2nn[nH]n2)cc1` [Losartan]: the LC retention time is 1.27 min.
With `CCOC(=O)OC1(C(=O)OCCl)CCC2C3CCC4=CC(=O)C=CC4(C)C3C(O)CC21C` (configuration not stated) [Loteprednol Etabonate] the figure was 0.97 min.
The same measure for `CN1CCN(C2=Nc3ccccc3Oc3ccc(Cl)cc32)CC1` [Loxapine]: 2.18 min; for `CC(C(=O)O)c1ccc(CC2CCCC2=O)cc1` (configuration not stated) [Loxoprofen]: 1.09 min.
Turning to `O=c1[nH]c(=O)c2nccnc2[nH]1` [Lumazine], the LC retention time was 2.49 min.
With `NCCCCC(N)C(=O)NCC(=O)O` (configuration not stated) [Lys-Gly] the figure was 9.84 min; with `CC(C)C(NC(=O)C(N)CCCCN)C(=O)O` (configuration not stated) [Lys-Val], 9.38 min; with `NCCCCC(N)C(=O)O` (configuration not stated) [Lysine], 9.54 min.
With `CC(C)c1ccc2c(c1)c(SC(C)(C)C)c(CC(C)(C)C(=O)O)n2Cc1ccc(Cl)cc1` [MK-886] the figure was 0.96 min; with `NC(=O)C=CC(=O)O` [Maleamic acid], 1.12 min.
Consider `Cc1occc(=O)c1O` [Maltol], for which the LC retention time came out at 1.32 min.
As for `OCC1OC(OC2C(CO)OC(O)C(O)C2O)C(O)C(O)C1O` (configuration not stated) [Maltose], the LC retention time was 8.75 min.
The same measure for `CNCCCC12CCC(c3ccccc31)c1ccccc12` [Maprotiline]: 2.66 min.
In the case of `CC1(C)SC2C(N=CN3CCCCCC3)C(=O)N2C1C(=O)O` (configuration not stated) [Mecillinam], the LC retention time was determined as 4.28 min.
On to `CC(=O)C1(O)CCC2C3CC(C)C4=CC(=O)CCC4(C)C3CCC21C` (configuration not stated) [Medroxyprogesterone], for which the LC retention time amounted to 1.01 min.
For `CC(=O)OC1(C(C)=O)CCC2C3C=C(C)C4=CC(=O)CCC4(C)C3CCC21C` (configuration not stated) [Megestrol Acetate], the LC retention time amounted to 0.96 min.
For the molecule `COc1ccc2[nH]cc(CCNC(C)=O)c2c1` [Melatonin], the LC retention time was determined as 1.24 min.
The same measure for `CC1CCN(CCCC(=O)c2ccc(F)cc2)CC1` [Melperone]: 2.12 min.
With `CC12CC3CC(C)(C1)CC(N)(C3)C2` [Memantine] the figure was 4.24 min; with `COc1cc(C)nc(-n2nc(C)cc2OC)n1` [Mepirizole], 1.03 min.
With `Cc1cccc(C)c1NC(=O)C1CCCCN1C` (configuration not stated) [Mepivacaine] the figure was 2.96 min.
As to `CCCC(C)(COC(N)=O)COC(N)=O` [Meprobamate], the LC retention time came out at 1.25 min.
As to `CN1CCCCC1CCN1c2ccccc2Sc2ccc(S(C)=O)cc21` (configuration not stated) [Mesoridazine], the LC retention time worked out at 4.24 min.
The same measure for `CN(C)C(=N)N=C(N)N` [Metformin]: 5.44 min; for `CCC(=O)C(CC(C)N(C)C)(c1ccccc1)c1ccccc1` (configuration not stated) [Methadone]: 2 min; for `CNC(C)Cc1ccccc1` (configuration not stated) [Methamphetamine]: 3.33 min.

Values taken from the RepoRT retention time repository.
